Data taken from patent US10588921B2, “Drug for the treatment of cholesterol accumulation disorders” (NATIONAL UNIVERSITY CORPORATION KUMAMOTO UNIVERSITY, priority 2013, dated 2020).
Blank lines part the entries; values can stand above or below the molecule they belong to.

What was measured:
[1] = test system: NPC-derived HLCs; format: cell-based, human; conditions: for cholesterol accumulation in NPC-HLCs (filipin staining): 1 mM hydroxypropyl-cyclodextrin, FIG. 18
Protocol: For hepatocyte-like cell (HLC) induction, the culture medium of semi-confluent human iPS cells were switched from the iPS medium to the definitive endoderm differentiation medium containing RPMI1640 supplemented with 2% B27 (Life technologies), 100 ng/m1 Activin A and 1 mM Sodium butyrate (NaB, SIGMA). The NaB concentration is changed in 0.5 mM on day 2. On day 4, the cells were harvested and re-seeded onto Matrigel-coated dishes in hepatic differentiation medium containing DMEM supplemented with 20% KSR, 1 mM glutamine, 1 mM NEAA, 0.1 mM 2-mercaptoethanol (SIGMA), 1% Dimethyl sulfoxide (DMSO, SIGMA). CXCR4 expressions were examined by FACS on day 4. On day 11, the cells were harvested and re-cultured in the hepatic maturation medium containing L15 medium (SIGMA) supplemented with 8.3% FBS, 8.3% tryptose phosphate broth (SIGMA), 10 mM hydrocortisone 21-hemisuccinate (SIGMA), 1 mM insulin (SIGMA), 2 mM glutamine, lOng/ml Hepatocyte growth factor (HGF, R & D) and 20 ng/ml Oncostatin M (OSM, R & D). On day 18, the cells were used for various experiments. For the hydroxypropyl cyclodextrin treatments, HLCs were cultured with 0.1 mM or 1 mM of the hydroxypropyl cyclodextrins for four days. For Annexin and TUNEL stainings, HLCs are cultured for four days and a week from day 18, respectively.
(§1) Alkaline phosphatase staining was performed using the Leukocyte Alkaline Phosphatase kit (SIGMA). For immunocytochemistry, cells were fixed with PBS containing 4% paraformaldehyde for 30 min at 4° C. For the molecules localized in nucleus, samples were treated with 0.2% Triton X-100 for 15 min at room temperature (RT). The cells were washed three times with PBS containing 2% FBS and then incubated overnight at 4° C. in PBS containing 2% FBS with primary antibodies. Nucleuses were stained with Propidium Iodide (PI, WAKO, Japan) and 1 mg/ml Hoechst 33258 (Invitrogen). The list of the primary and secondary antibodies is described in Table 3. For Filipin staining, samples were washed with PBS three times after the fixing and incubated with PBS containing 1.5 mg/ml glycine for 10 min at RT. The samples were then treated with PBS containing 10% FBS and 50 mg/ml Filipin (SIGMA). The data was calculated by UV absorption (360/460) and analyzed with Developer Toolbox software of IN CELL ANALYZER 6000 (GE Healthcare). The number of insoluble p62 granules were counted by IN CELL ANALYZER 6000 (GE Healthcare). To investigate glycogen accumulation, Periodic acid Schiff (PAS) staining of hepatocyte-like cells were performed by PAS staining solution (Muto Pure chemicals, Tokyo, Japan), according to the manufacturer's protocol.
The inventors therefore treated the HLCs derived from normal and NPC-iPS cell lines with a series of 2-hydroxypropyl-cyclodextrins with different cavity sizes, and observed effect of a series of hydroxypropyl-cyclodextrins. HLCs were cultured with 1 mM of the indicated hydroxypropyl-cyclodextrin for 4 days, stained with filipin and analyzed with an IN CELL ANALYSER (GE Healthcare) (FIG. 18).
(§2) The size of HLCs is decreased by the treatments with HPBCD and HPGCD (data not shown). Effects of various concentration of HPBCD and HPGCD in NPC-derived HLCs was observes. HLCs were cultured with HPBCD or HPGCD for 4 days, stained with filipin and analyzed with an IN CELL ANALYSER (GE Healthcare).

[2] = test system: isolated erythrocyte; conditions: in vitro; cited from earlier work
[3] = test system: normal mice; test: Acute toxicity test in normal mice; format: in vivo, mouse; conditions: 14.4 mM, 19.18 ml/g subcutaneous, 8-week-old normal mice; FIG. 34
Protocol: To confirm the excellent safety of HPGCD, acute toxicity was tested using normal mice. 14.4 mM HPBCD or HPGCD were injected in the amount of 19.18 ml/g into subcutaneous tissues of 8-week-old mice (n=10), and then survival rates were calculated.

[4] = test system: NPC-derived HLCs; format: cell-based, human; conditions: cells treated during HLC differentiation; FIG. 20
[5] = test system: NPC child patients; conditions: intravenous instillation 2500 mg/kg per time, 1 to 3 times per week, more than 1 year; cited from earlier work
[6] = test system: NPC1-defective cells; conditions: reported; cited from earlier work
[7] = test system: NPC-derived HLCs; test: Cell size of HLCs; format: cell-based, human; conditions: data not shown
Protocol: The cell sizes of albumin-positive cells was calculated by Developer Toolbox software of IN CELL ANALYZER 6000 (GE Healthcare).
as §2

[8] = test system: p62; test: Immunoblot of insoluble p62 in HLCs; format: cell-based, human; conditions: 1 mM HPCD, 4 days; FIG. 23
Protocol: (§3) Protein lysates were separated by SDS-PAGE and transferred to PVDF membrane. LC3-I and LCS3-II were detected by anti-LC3 antibody (Cell Signaling). The data are normalized to α-tubulin expression. The HLCs were solved in RIPA buffer and then insoluble p62 was collected as a pellet after the centrifuge of the samples.
(§4) HLCs were culture with 1 mM 2-hydroxypropylcyclodextrins (HPCDs) for 4 days, and ATP level, expression levels of LC3 and p62, and insoluble p62 granules were measured.

[9] = test system: p62; test: Count of insoluble p62 granules in HLCs (IN CELL ANALYZER); format: cell-based, human; conditions: 1 mM HPCD, 4 days; FIG. 24
Protocol: as §1, with “To investigate glycogen accumulation, Periodic acid Schiff (PAS) staining of hepatocyte-like cells were performed by PAS staining solution (Muto Pure chemicals, Tokyo, Japan), according to the manufacturer's protocol.” left out
as §4

[10] = test system: LC3; test: Immunoblot of LC3 expression in HLCs; format: cell-based, human; conditions: 1 mM HPCD, 4 days; FIG. 22
Protocol: as §3, §4

[11] = test system: NPC-derived HLCs; test: Measurement of ATP in HLCs; format: cell-based, human; conditions: 1 mM HPCD, 4 days; FIG. 21
Protocol: Hepatocyte-like cells derived from the iPSC lines were cultured in DMEM medium in the absence of glucose for 24 hours and were then cultured in the DMEM medium containing 10% FBS and high glucose for 6 hours. ATP was measured by ATP measurement Kit (TOYO INK), according to the manufacturer's protocol.
as §4

[12] = test system: Npc1 gene-defective (Npc1−/−) mice; conditions: cited from earlier work
[13] = test system: rats; conditions: acute intravenous administration to rats; cited from earlier work

- activity on hepatocyte-like cells differentiation-induced from NPC patient-derived iPS cells [1]: no activity at all
Molecule: 2-Hydroxypropyl-α-cyclodextrin [HPACD]
- cholesterol accumulation in NPC-HLCs (filipin staining) ([1]; 4 days): did not show any effect on cholesterol accumulation
- hemolytic activity (order) [2]: HPBCD>HPACD>HPGCD

Molecule: CC(O)COC[C@H]1O[C@@H]2O[C@H]3[C@H](O)[C@@H](O)[C@@H](O[C@H]4[C@H](O)[C@@H](O)[C@@H](O[C@H]5[C@H](O)[C@@H](O)[C@@H](O[C@H]6[C@H](O)[C@@H](O)[C@@H](O[C@H]7[C@H](O)[C@@H](O)[C@@H](O[C@H]8[C@H](O)[C@@H](O)[C@@H](O[C@H]1[C@H](O)[C@H]2O)O[C@@H]8COCC(C)O)O[C@@H]7COCC(C)O)O[C@@H]6COCC(C)O)O[C@@H]5COCC(C)O)O[C@@H]4COCC(C)O)O[C@@H]3COCC(C)O (stereo partly drawn) [HPBCD, 2-hydroxypropyl-β-cyclodextrin]
- survival after injection (acute toxicity) [3]: Almost all mice injected with HPBCD dies up to 72 hours after injection
- free cholesterol accumulation, treatment during HLC differentiation [4]: effective at the intermediate stages in hepatic differentiation
- nervous symptom [5]: has not been improved yet
- splenohepatomegaly and brain wave [5]: certain effect of reduction of splenohepatomegaly and improvement in a brain wave
- cholesterol accumulation in NPC1-defective cells [6]: effective for reducing of cholesterol accumulation
- size of HLCs [7]: decreased
- amount of insoluble p62 [8]: reduced the amount of insoluble p62
- cholesterol accumulated in hepatocyte-like cells derived from NPC [1]: removed cholesterol accumulated in hepatocyte-like cells derived from NPC
- function of the hepatocyte-like cells [1]: recovered the function of the hepatocyte-like cells
- cholesterol accumulation in NPC-HLCs (filipin staining) ([1]; 4 days): significantly decreased
- cholesterol accumulation in NPC-derived HLCs (filipin staining) ([1]; low concentration 100 μM, 4 days, FIG. 19): ineffective for reducing cholesterol accumulation
- proportion of HLCs carrying more than 40 granules of insoluble p62 aggregation [9]: greatly reduced
- expression level of LC3 [10]: recovered to normal levels
- ATP level [11]: recovered
- hemolytic activity (order) [2]: HPBCD>HPACD>HPGCD
- improving effect compared with systemic administration ([12]; directly administered into the brain): increased a few hundreds times
- medical state or survival ([12]; intravenous administration): effective in improving the medical state or prolonging survival

Molecule: OC[C@H]1O[C@@H]2O[C@H]3[C@H](O)[C@@H](O)[C@@H](O[C@H]4[C@H](O)[C@@H](O)[C@@H](O[C@H]5[C@H](O)[C@@H](O)[C@@H](O[C@H]6[C@H](O)[C@@H](O)[C@@H](O[C@H]7[C@H](O)[C@@H](O)[C@@H](O[C@H]1[C@H](O)[C@H]2O)O[C@@H]7CO)O[C@@H]6CO)O[C@@H]5CO)O[C@@H]4CO)O[C@@H]3CO [α-cyclodextrin]
- intravenous dose showing lethality to 50% of population (LD50 value) [13]: 1000 mg/kg

Molecule: OC[C@H]1O[C@@H]2O[C@H]3[C@H](O)[C@@H](O)[C@@H](O[C@H]4[C@H](O)[C@@H](O)[C@@H](O[C@H]5[C@H](O)[C@@H](O)[C@@H](O[C@H]6[C@H](O)[C@@H](O)[C@@H](O[C@H]7[C@H](O)[C@@H](O)[C@@H](O[C@H]8[C@H](O)[C@@H](O)[C@@H](O[C@H]1[C@H](O)[C@H]2O)O[C@@H]8CO)O[C@@H]7CO)O[C@@H]6CO)O[C@@H]5CO)O[C@@H]4CO)O[C@@H]3CO [β-cyclodextrin]
- intravenous dose showing lethality to 50% of population (LD50 value) [13]: 788 mg/kg

Molecule: OC[C@H]1O[C@@H]2O[C@H]3[C@H](O)[C@@H](O)[C@@H](O[C@H]4[C@H](O)[C@@H](O)[C@@H](O[C@H]5[C@H](O)[C@@H](O)[C@@H](O[C@H]6[C@H](O)[C@@H](O)[C@@H](O[C@H]7[C@H](O)[C@@H](O)[C@@H](O[C@H]8[C@H](O)[C@@H](O)[C@@H](O[C@H]9[C@H](O)[C@@H](O)[C@@H](O[C@H]1[C@H](O)[C@H]2O)O[C@@H]9CO)O[C@@H]8CO)O[C@@H]7CO)O[C@@H]6CO)O[C@@H]5CO)O[C@@H]4CO)O[C@@H]3CO [γ-cyclodextrin]
- intravenous dose showing lethality to 50% of population (LD50 value) [13]: > 3750 mg/kg
